Laboratory results as given in patent US20250099420A1, “SMALL MOLECULE MODULATORS OF GPR139 COMPLEX” (University of Florida Research Foundation, Incorporated, priority 2022, published 2025).
Read-outs that look alike come from different tables or passages of the source.

Tests used:
[1] = test system: parental HEK cells; test: HEK parental Agonist Counterscreen Assay (non-transfected cells); assay type: cell-based; settings: for Averaged Max % Response (±St. Dev.): activity relative to known control
Excerpt: The high control for the agonist counterscreen was Forskolin not acetylcholine.

[2] = biological target: T1, GPR139 (Homo sapiens, UniProt Q6DWJ6); test: GPR139 Agonist titration / agonist counterscreen assay (calcium detection, HEK-GPR139 cells); assay type: cell-based; parameters: expressed in transfected cells; host or cells: HEK Aequorin cells, Maxcyte transient transfection; settings: GPR139 Agonist Activity; for Averaged Max % Response (±St. Dev.): activity relative to known control; for EC50: read-out: EC50
T1 sequence (Q6DWJ6 1-353): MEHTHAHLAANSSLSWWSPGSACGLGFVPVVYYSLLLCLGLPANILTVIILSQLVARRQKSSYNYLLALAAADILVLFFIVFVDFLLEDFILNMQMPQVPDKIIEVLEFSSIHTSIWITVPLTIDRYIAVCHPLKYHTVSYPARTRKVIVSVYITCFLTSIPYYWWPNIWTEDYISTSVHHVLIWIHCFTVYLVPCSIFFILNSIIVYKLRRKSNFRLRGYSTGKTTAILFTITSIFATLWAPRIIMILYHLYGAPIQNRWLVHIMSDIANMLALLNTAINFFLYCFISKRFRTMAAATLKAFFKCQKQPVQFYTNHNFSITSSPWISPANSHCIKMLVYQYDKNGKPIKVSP
Procedure: GPR activity was assessed using a calcium detection assay. […] Negative control samples were treated with DMSO. […] Intracellular calcium was measured using Calcium 5.

[3] = Homo sapiens, HEK293, HEK Agonist Activity section of Table 4 (parental HEK counterscreen)
[4] = values printed in E-notation without unit
[5] = Homo sapiens, HEK293, HEK Agonist Activity, parental non-transfected HEK cells
[6] = HEK Agonist Activity section of Table 4 (parental HEK counterscreen)

Structure (SMILES)	Lipophilic Efficiency (logD) ([1]; HEK Agonist Activity section)	Lipophilic Efficiency (logP) ([1]; HEK Agonist Activity section)	Averaged Max % Response (±St. Dev.) [2] [%]	Lipophilic Efficiency (logD) ([2]; based on logD)	Lipophilic Efficiency (logP) ([2]; based on logP)	Hill Slope ([2]; fitted dose-response curve)	Efficiency Ligand ([2]; ligand efficiency)	EC50 [2, 4] [nM]	Lipophilic Efficiency (logD) ([1]; HEK Agonist Activity)	Lipophilic Efficiency (logP) ([1]; HEK Agonist Activity)	Efficiency Ligand [2]	Hill Slope [2]	Lipophilic Efficiency (logD) [2]	Lipophilic Efficiency (logP) [2]	EC50 ([2]; HEK-GPR139 cells) [nM]	Averaged Max % Response (±St. Dev.) ([1]; HEK Agonist Activity section) [%]	EC50 [1, 3] [nM]	Averaged Max % Response (±St. Dev.) ([1]; HEK Agonist Activity) [%]	further results
Nc1c(Cl)c(Cl)nc(C(=O)OCC(=O)NCc2ccccc2)c1Cl [SR-01000073564]	2.07	2.07	129.62 ± 8.33	4.46	4.46	0.59	0.42	58.6								8.96 ± 14.03	> 14500		
O=C(CN1CCN(Cc2ccccc2Cl)C1=O)NCc1ccccc1Cl [SR-01000125458]			119.40 ± 41.91	4.54	4.54	0.73	0.40	35.8	1.94	1.94								−1.02 ± 2.16	EC50 [1, 5]: > 14100 nM
CC(C)C(=O)NNC(=O)C(C)Oc1ccc(Cl)cc1Cl (centres unmarked) [SR-01000361172]	1.97	1.93	91.50 ± 11.81								0.40	1.48	2.81	2.78	2000	2.50 ± 11.74	> 14100		
COCC(=O)Oc1c(Sc2c(F)c(F)c(F)c(F)c2F)c(C)nn1C(C)(C)C [SR-01000906953]	1.23	1.23	95.58 ± 3.98	3.16	3.16	1.02	0.36	68.1								192.43 ± 25.16			Hill Slope ([1]; HEK Agonist Activity section): 9.35; EC50 [1, 6]: 5700 nM
C=C1N=C(NC2CCCCCC2)c2ccccc2N1 [SR-01000565308]	1.03	0.98	90.10 ± 8.93								0.45	1.89	2.40	2.36		25.00 ± 13.25	> 17500		
O=C(O)CC1CCCC1c1ccccc1 (centres unmarked) [SR-01000320687]	4.35	1.80	65.23 ± 8.63								0.56	0.93	5.53	2.98	930	17.26 ± 6.30	> 14100		
CC1CCC(NC(=O)CCC(=O)N2CCSc3ccccc32)CC1 (centres unmarked) [SR-01000159110]			95.57 ± 19.71	5.19	5.19	1.18	0.45	16.1	2.25	2.25								3.44 ± 10.60	EC50 [1, 5]: > 14100 nM
O=C(Cn1ncc2c1-c1ccccc1OC2)Nc1ccc(CCO)cc1 [SR-01000098914]	2.18	2.18	97.42 ± 2.76								0.34	0.93	3.66	3.66	468	11.28 ± 8.03	> 14100		
O=C(CCc1nc2cccnc2n1Cc1cccs1)NCCc1ccccc1 [SR-01000077904]			79.43 ± 7.55	4.54	4.54		0.41		1.20	1.20								−12.58 ± 9.87	EC50 [1, 5]: > 14100 nM
Cc1ccc(C)c(C(=O)CCC(=O)NNC(=O)c2cc(C)oc2C)c1 [SR-01000069642]			100.05 ± 4.70	4.99	4.99	0.80	0.41	43.1	2.45	2.45								8.55 ± 4.45	EC50 [1, 5]: > 14800 nM

Now from value to molecule, other results behind:

Lipophilic Efficiency (logD) ([1]; HEK Agonist Activity section)	Lipophilic Efficiency (logP) ([1]; HEK Agonist Activity section)	Averaged Max % Response (±St. Dev.) [2] [%]	Lipophilic Efficiency (logD) ([2]; based on logD)	Lipophilic Efficiency (logP) ([2]; based on logP)	Hill Slope ([2]; fitted dose-response curve)	Efficiency Ligand ([2]; ligand efficiency)	EC50 [2, 4] [nM]	Lipophilic Efficiency (logD) ([1]; HEK Agonist Activity)	Lipophilic Efficiency (logP) ([1]; HEK Agonist Activity)	Efficiency Ligand [2]	Hill Slope [2]	Lipophilic Efficiency (logD) [2]	Lipophilic Efficiency (logP) [2]	EC50 ([2]; HEK-GPR139 cells) [nM]	Structure (SMILES)	Averaged Max % Response (±St. Dev.) ([1]; HEK Agonist Activity section) [%]	EC50 [1, 3] [nM]	Averaged Max % Response (±St. Dev.) ([1]; HEK Agonist Activity) [%]	further results
1.49	1.49	93.88 ± 11.00								0.25	0.32	2.28	2.28	2300	O=C(NCCS(=O)(=O)N1CCc2ccccc2C1)C(c1ccccc1)c1ccccc1 [SR-01000911742]	−12.80 ± 5.17	> 14100		
2.88	2.88	85.23 ± 10.03	4.79	4.79	0.63	0.38	174								CC(NC(=O)Cn1ncc2ccccc21)c1ccc2c(c1)OCCO2 (centres unmarked) [SR-01000152760]	0.48 ± 8.40			EC50 [1, 6]: > 14100 nM
1.74	1.74	109.30 ± 27.76								0.42	0.93	3.32	3.32	454	Cc1cccc(C(=O)NNC(=O)CCc2ccccc2)c1 [SR-01000513008]	−5.44 ± 7.74	> 17100		
		111.02 ± 13.88	4.73	4.73	0.52	0.38	16.9	1.80	1.80						CCC1CCCCN1C(=O)CN1C(=O)NC(C)(c2ccc3ccccc3c2)C1=O (centres unmarked) [SR-01000048417]			−4.34 ± 6.43	EC50 ([1]; HEK Agonist Activity, parental non-transfected HEK cells): > 14300 nM
2.28	2.28	84.13 ± 7.28								0.34	0.90	3.50	3.50	853	CCOC(=O)C1C2C=CC3(CN(C(C)c4ccc(Br)cc4)C(=O)C13)O2 (centres unmarked) [SR-01000114492]	−1.32 ± 3.21			EC50 [1, 6]: > 14100 nM
1.72	1.72	114.56 ± 16.65	4.08	4.08	0.14	0.40	61.5								Cc1ccc(NC(=O)Cn2ncc3c2-c2ccccc2OC3)cc1F [SR-01000135068]	−6.35 ± 1.52	> 14100		
1.52	1.52	96.78 ± 14.90								0.31	0.51	2.73	2.73	863	CC(CCc1ccccc1)NC(=O)Cn1ncc2c1-c1ccccc1OC2 (centres unmarked) [SR-01000134913]	−5.82 ± 11.13	> 14100		
		107.86 ± 14.78	5.70	5.70	0.48	0.38	25.6	2.96	2.96						COc1ccc(C2(C)NC(=O)C(CC(=O)NCCc3ccccc3)C2=O)cc1 (centres unmarked) [SR-01000918721]			9.27 ± 15.15	EC50 [1, 5]: > 14100 nM
1.41	1.41	93.14 ± 10.62	3.67	3.67	0.47	0.35	81.6								Cc1ccc2c(CC(=O)NNC(=O)CC34CC5CC(CC(C5)C3)C4)coc2c1 [SR-01000054849]	1.19 ± 3.75			EC50 [1, 6]: > 14800 nM
